Experimental data taken from ChEMBL document CHEMBL1201862, “PubChem BioAssay data set” (2004).
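Cultured in 96-well plates, cells were exposed to test compound for 48 hours across five concentrations. At the GI50, growth is halved.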 The source made the active and inactive calls. Rule as the data show it: active = GI50 up to about 1.1 µM and inactive = higher.

What was measured:
Assay in all cases: NCI anticancer screen, dose series, 48 h
PC-3 = system: PC-3
NCI-H460 = system: NCI-H460
SF-295 = system: SF-295
SF-268 = system: SF-268
SW-620 = system: SW-620
TK-10 = system: TK-10
HCT-116 = system: HCT-116
MDA-MB-435 = system: MDA-MB-435
HOP-62 = system: HOP-62
CCRF-CEM = system: CCRF-CEM
MDA-MB-231 = system: MDA-MB-231
UO-31 = system: UO-31
NCI-H23 = system: NCI-H23
UACC-62 = system: UACC-62
HCT-15 = system: HCT-15
IGROV-1 = system: IGROV-1
K562 = system: K562
SN12C = system: SN12C
HCC 2998 = system: HCC 2998
EKVX = system: EKVX

Structure (SMILES) | GI50 (PC-3) | GI50 (NCI-H460) | GI50 (SF-295) | GI50 (SF-268) | GI50 (SW-620) | GI50 (TK-10) | GI50 (HCT-116) | GI50 (MDA-MB-435) | GI50 (HOP-62) | GI50 (CCRF-CEM) | GI50 (MDA-MB-231) | GI50 (UO-31) | GI50 (NCI-H23) | GI50 (UACC-62) | GI50 (HCT-15) [µM] | GI50 (IGROV-1) | GI50 (K562) | GI50 (SN12C) | GI50 (HCC 2998) | GI50 (EKVX)
Cc1nc2c(o1)C(=O)c1ccccc1/C2=N/c1ccc(N2CCOCC2)cc1 | 2.08 µM (inactive) | 11.1 µM (inactive) | 2.52 µM (inactive) | 4.48 µM (inactive) | 3.89 µM (inactive) | 48 µM (inactive) | 3.35 µM (inactive) | 1.94 µM (inactive) | 8.85 µM (inactive) | 4.57 µM (inactive) | 2.7 µM (inactive) | 3.43 µM (inactive) | 2.39 µM (inactive) | 2.03 µM (inactive) | 3.66 | 8.71 µM (inactive) | 3.28 µM (inactive) | 3.18 µM (inactive) | 34.1 µM (inactive) | 7.73 µM (inactive)
CCOC(=O)c1ccc(-c2cccs2)[nH]1 | 72.6 µM (inactive) | > 100 µM (inactive) | > 100 µM (inactive) | > 92 µM (inactive) | > 84.7 µM (inactive) | > 65.3 µM (inactive) | 68.5 µM (inactive) | 44.3 µM (inactive) | > 66.4 µM (inactive) | > 81.3 µM (inactive) | > 61.8 µM (inactive) | 50 µM (inactive) | 67.5 µM (inactive) | 52.7 µM (inactive) | 26.9 | 83.2 µM (inactive) | 71.3 µM (inactive) | > 100 µM (inactive) | > 100 µM (inactive) | 38.8 µM (inactive)
CC(=O)OC1CC(n2cc(F)c(=O)[nH]c2=O)OC1CO (stereo not given) | 16.9 µM (inactive) | 0.0177 µM (active) | 0.209 µM (active) | 0.0807 µM (active) | 10.8 µM (inactive) | 15.9 µM (inactive) | 2.51 µM (inactive) | 15.7 µM (inactive) | 0.152 µM (active) | 0.117 µM (active) | > 55.2 µM (inactive) | 0.635 µM (active) | 2 µM (inactive) | 0.42 µM (active) | 16.1 | > 61.7 µM (inactive) | 15.1 µM (inactive) | 1.23 µM (inactive) | < 0.0279 µM (active) | 20 µM (inactive)
C=C1C(=O)O[C@@H]2C[C@@H]3[C@]4(CC[C@]5(C)[C@@H]([C@H](C)CC/C=C(\C)C=O)CC[C@@]35C)C[C@]4(CCC(=O)OC)[C@H]12 | 1.9 µM (inactive) | 2.8 µM (inactive) | 2.14 µM (inactive) | 1.72 µM (inactive) | 1.72 µM (inactive) | 2.46 µM (inactive) | 0.771 µM (active) | 1.51 µM (inactive) | 2.38 µM (inactive) | 0.222 µM (active) | 1.95 µM (inactive) | 2 µM (inactive) | 1.84 µM (inactive) | 1.56 µM (inactive) | 1.78 | 2.13 µM (inactive) | 0.845 µM (active) | 1.9 µM (inactive) | 2.14 µM (inactive) | 2.99 µM (inactive)
